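The compound was tested at five concentrations on cells cultured in 96-well plates, with a 48-hour exposure period. At the TGI there is no net growth.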
Legend:
Experiment in all cases: DTP human tumour cell line panel, 48 h
[1] = tested on: 786-0 renal
[2] = tested on: A498 renal
[3] = tested on: ACHN renal
[4] = tested on: CCRF-CEM leukemia
[5] = tested on: COLO 205 colon
[6] = tested on: HCC-2998 colon
[7] = tested on: HL-60(TB) leukemia
[8] = tested on: HS 578T breast
[9] = tested on: M14 melanoma
[10] = tested on: NCI-H23 lung
[11] = tested on: NCI/ADR-RES ovarian
[12] = tested on: OVCAR-3 ovarian
[13] = tested on: OVCAR-8 ovarian
[14] = tested on: SF-295 CNS
[15] = tested on: SK-MEL-5 melanoma
[16] = tested on: SN12C renal
[17] = tested on: SNB-75 CNS
[18] = tested on: SW-620 colon
[19] = tested on: UO-31 renal

CNC1=C(C)C(=O)C(=O)C([C@H](C)CCC=C(C)C)=C1O
TGI [1]: > 95.3 µM
TGI [2]: 62.3 µM
TGI [3]: 39.4 µM
TGI [4]: > 29.4 µM
TGI [5]: > 73.7 µM
TGI [6]: 99.3 µM
TGI [7]: 6.88 µM
TGI [8]: > 91.8 µM
TGI [9]: > 100 µM
TGI [10]: > 100 µM
TGI [11]: > 38.4 µM
TGI [12]: > 100 µM
TGI [13]: > 60.9 µM
TGI [14]: > 75.7 µM
TGI [15]: 41.4 µM
TGI [16]: > 100 µM
TGI [17]: > 94.4 µM
TGI [18]: > 100 µM
TGI [19]: 49.7 µM
